Reference: US6534480B2, “Compositions for increasing energy in vivo” (Bioenergy Inc., priority 1999, dated 2003)

Key:
adenine salvage pathway = test: Adenine salvage (formation of ATP) in perfused resting rat plantaris muscle, ribose dose response; type: in vivo, Sprague-Dawley rats; conditions: for salvage of adenine (formation of ATP), Observed: 30 minutes
Procedure: It has been theorized but not objectively shown that ribose, via PRPP synthesis, increases the rate of ATP synthesis via the nucleotide salvage pathway. […] The muscle was perfused with reconstituted blood medium at ˜40 ml/min, providing tissue perfusion of approximately 0.65 ml/min. Varying concentrations of D-ribose were added to the perfusate to bring the concentration to 0.156 mM, 0.5 mM, 1.58 mM, 5.0 mM and 15.0 mM. The muscle was perfused for 30 minutes. A minimum of two rats was used for analysis at each dose of ribose tested. Following perfusion, muscle sections were quickly dissected from the limb and freeze-clamped with aluminum tongs chilled in liquid nitrogen. Muscle sections were lyophilized and reconstituted in distilled water for subsequent-separation of adenine nucleotides by reverse-phase high pressure liquid chromatography. Results are expressed as salvage of adenine (i.e., formation of ATP) in nanomoles salvaged per gram wet weight of muscle per hour (nM/gm/hr).

ATP [1] = test: ATP in vastis lateralis muscle biopsies (Ribose Athlete Study); type: in vivo, human; conditions: for ATP Recovery % of Pre: 48 hours recovery vs initial level
Procedure: Four healthy, fit subjects in the age range 24 to 26 years of age were tested. The group was selected to be homogeneous regarding fitness level, gender and mean age with no known metabolic, neuronal, endocrine or cardiopulmonary disorders. All were capable of or had experience with cycling. The study protocol included four phases: (1) an initial baseline phase consisting of no exercise session; (2) a loading phase including three days of administration of either D-ribose or placebo (glucose) three times per day; (3) a training phase of three days employing exercise sessions characterized by serial (N=6) bouts of short (10 second) high-intensity cycle sprints at 7% body mass resistance with 50 second rest periods between sprints twice per day (morning and afternoon), and (4) a recovery phase for a period of 48 hours after the final training session. FIG. 1 is a diagram of a single cycle sprint bout. Muscle biopsies (MB) were performed on the […] lateralis muscle using both legs in order to evenly distribute and minimize sampling and possible muscle soreness per leg due to the biopsy itself. The first MB was collected at rest at the beginning of the study to establish a baseline and immediately after the first training-session of day 0 or the first phase. During the loading phase, no MB was taken. Muscle Biposies were taken following the final training session and after 48 hours of recovery. Two subjects were randomly selected for inclusion into the placebo or ribose group. Ribose or glucose was administered orally in a 250 ml iso-osmotic solution containing 10.0 grams of either ribose or placebo three times per day for three days preceding training (loading phase) and for three days during training (training phase). One-half liter isotonic electrolyte solution was given immediately post exercise and again 30 minutes later to avoid dehydration. The concentration of the following analytes was determined in the MB samples: ATP, ADP, AMP, IMP (inosine monophosphate), TAN (total adenine nucleotides), creatine phosphate and creatine.

[2] = Exercise induced angina, single patient with coronary artery disease; type: in vivo, human
From the text: A patient with a history of coronary artery disease, status post triple coronary artery bypass, experienced exercise induced angina. Their present medications are: enalapril (an angiotensin converting enzyme inhibitor), carvedilol (a β blocking agent), nitroglycerine patch and nitroglycerine tablets sublingual as needed. […] The patient performed poorly on two stress tests. Their exercise regimen consisted of a daily walk. Due to the development of angina, the patient was able to walk less than one mile per day, at which point they took sublingual nitroglycerine. The patient was given oral D-ribose dissolved in about 250 cc. of water. Over a six-month period, the patient received intermittent doses of 5-10 grams per day of D-ribose. […] When the ribose was discontinued, their pre-ribose, anginal-inducing exercise state recurred, which necessitated the use of supplemental oral nitroglycerine.

ATP [3] = conditions: heart recovering from ischemia, intravenous perfusion; cited from earlier work
de novo synthesis of AMP = conditions: ribose added to the perfusate; cited from earlier work

For `O=C[C@H](O)[C@H](O)[C@H](O)CO` [Ribose, D-ribose], the “adenine salvage relative to zero mM ribose” value (adenine salvage pathway; 0.158 mM ribose) was “doubles”, the “salvage of adenine, Saturation Kinetics with Base” value (“salvage of adenine … with Base” for short) (adenine salvage pathway; 0.158 mM ribose) was 85.82 nM/gm/hr and the “salvage of adenine (formation of ATP), Observed” value (“salvage of adenine … Observed” for short) (adenine salvage pathway; 0.158 mM ribose in perfusate) was 113.0 nM/gm/hr. The “salvage of adenine … with Base” value (adenine salvage pathway; 0.500 mM ribose) was 118.68 nM/gm/hr, the “salvage of adenine … Observed” value (adenine salvage pathway; 0.500 mM ribose in perfusate) was 110.0 nM/gm/hr and the “salvage of adenine … with Base” value (adenine salvage pathway; 1.000 mM ribose) was 154.12 nM/gm/hr. For the same molecule, the “salvage of adenine … with Base” value (adenine salvage pathway; 1.580 mM ribose) was 183.51 nM/gm/hr, the “salvage of adenine … Observed” value (adenine salvage pathway; 1.580 mM ribose in perfusate) was 188.5 nM/gm/hr and the “salvage of adenine … with Base” value (adenine salvage pathway; 2.000 mM ribose) was 199.74 nM/gm/hr. The “salvage of adenine … with Base” value (adenine salvage pathway; 2.500 mM ribose) was 215.29 nM/gm/hr, the “salvage of adenine … with Base” value (adenine salvage pathway; 3.000 mM ribose) was 227.85 nM/gm/hr and the “salvage of adenine … with Base” value (adenine salvage pathway; 5.000 mM ribose) was 260.68 nM/gm/hr. The “salvage of adenine … Observed” value (adenine salvage pathway; 5.000 mM ribose in perfusate) was 250.0 nM/gm/hr, the “salvage of adenine … Observed” value (adenine salvage pathway; 5.000 mM ribose in perfusate, listed as ribose) was 250 nM/gm/hr and the “salvage of adenine … with Base” value (adenine salvage pathway; 15.000 mM ribose) was 310.37 nM/gm/hr. For the same molecule, the “salvage of adenine … Observed” value (adenine salvage pathway; 15.000 mM ribose in perfusate) was 315.5 nM/gm/hr, the “ATP Recovery % of Pre” value (ATP [1]) was 82% and the “ATP Recovery % of Pre” value (ATP [1]; listed as ribose) was 82%. For the same molecule, the “ATP Change Post-Rec” value (ATP [1]; in vivo) was 6.90 mmol/kg dw, the “ATP Change Pre-Post” value (ATP [1]; in vivo) was −11.43 mmol/kg dw and the “Mean ATP Values, Recovery” value (ATP [1]; muscle biopsy after 48 hours of recovery) was 20.80 mmol/kg dw. The “Mean ATP Values, Post” value (ATP [1]; muscle biopsy following the final training session) was 13.90 mmol/kg dw, the “Mean ATP Values, Pre” value (ATP [1]; muscle biopsy, after three days ribose loading, before training) was 25.33 mmol/kg dw and the “patient's subjective evaluation of the ribose treatment” value ([2]; oral D-ribose 5-10 grams per day) was “much less angina pain”. The “exercise tolerance (daily walk) without nitroglycerine” value ([2]; oral D-ribose 5-10 grams per day intermittent over six months, before: less than one mile per day) was “two miles per day”, the “recovery of ATP levels” value (ATP [3]) was “enhanced” and the “de novo synthesis of AMP in sedentary muscle” value (de novo synthesis of AMP) was “increases the de novo synthesis of AMP”. The “decline in de novo synthesis in contracting muscle” value (de novo synthesis of AMP) was “does not eliminate the decline”.
